Results on one compound are retold here after patent publication US6664241B2, “Water-soluble amide derivatives of polyene macrolides and preparation and uses thereof” (Micrologix Biotech Inc., priority 2000, dated 2003).

Values after ≈ are worked out from the molar mass of the structure shown.

Data set [1] has as its system C. albicans. Nature of the data set: Minimum Inhibitory Concentrations (MICs) against C. albicans, NCCLS M27-A broth dilution. In kind it is cell-based. The note with it: Candida albicans, read-out: MIC. The protocol: For each compound synthesized, Minimum Inhibitory Concentrations (MICs) against C. albicans were determined as described in Reference Method for Broth Dilution Antifungal Susceptibility Testing of Yeasts, Approved Standard, NCCLS document M27-A (ISBN 1-56238-328-0), NCCLS, 940 West Valley Road, Suite 1400, Wayne, Pa. 19087, 1997.

A short description of data set [2]: Maximum non-lethal dose (NLD), single intravenous dose in mice. In kind it is in vivo, Swiss-Webster male mice. The note with it: test compounds as aspartate salts in 5% mannitol, AmB as FUNGIZONE
In short, it runs like this:
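Groups of four male Swiss-Webster mice received one intravenous dose of aspartate salt in 5% mannitol/water, freshly prepared. Doses were raised or lowered after each round until the maximum non-lethal dose was found.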

In data set [3] the test system is C. albicans. Nature of the data set: 7 day kidney bioburden evaluation in neutropenic mice challenged with C. albicans. It is filed as in vivo, Swiss-Webster mice. The note with it: Candida albicans, ip, 168 h, intraperitoneally once daily for 7 days, 50% of animals with 2 log10 reduction in kidney CFU. Here is the method:
A variety of the compounds synthesized as described in Section 5, supra, were tested in various in vivo assays, as described below. The results of the various assays are provided in TABLE 3, presented at the end of this section. In all of the in vivo assays described, the test compounds, in the form of the aspartate salts, were formulated in an aqueous vehicle (5% mannitol in sterile water; OSMITROL, Baxter Healthcare, Deerfield, Ill.), followed by appropriate dilutions. The formulations were prepared fresh before dosing.
AmB and AME were also tested for comparison. For AmB, the commercially available FUNGIZONE (Bristol-Meyers Squibb Co.) was used. Reported values are based upon the weight of the AmB active ingredient, not on the basis of the weight of the FUNGIZONE powder. AME was formulated in OSMITROL as described for the test compounds.
Various polyene macrolide amide derivatives of the invention were evaluated for their protective effect when administered intraperitoneally once daily for 7 days to neutropenic mice challenged with live C. albicans.
Swiss-Webster mice (Simonsen Laboratories, Gilroy, Calif.) were made neutropenic by intravenous administration of 5-fluorouracil (150 mg/kg) on study day −1. On study day 0, all mice received by intravenous injection a single inoculum (0.2 mL) containing as estimated 5.0×10^4 CFU of C. albicans. The day of inoculation was designated as study day 0. Beginning the day after infection (on study day 1), mice were treated intraperitoneally with vehicle alone or formulated test compound, once daily for 7 consecutive days.
The mice were observed daily from study day 1 through study day 8 (1 day after the last dose). Mice found dead or euthanized in extremis were removed from the study without further processing. Surviving mice were euthanized by inhalation of CO2 on study day 8 and both kidneys from each mouse were removed. Each pair of removed kidneys was homogenized in 3 mL of ice-cold PBS containing 10% glycerol. A portion of each homogenate was used to determine log10 CFU per kidney using SDA plates (48 hours of incubation at 30° C.). Kidney log10 CFU data were analyzed using a t-test. The criterion for a statistically significant response was set at p<0.01.
For comparison, the results for AmB and AME are also provided. Efficacy was defined for individual animals as a greater than 2 log10 reduction in kidney CFU relative to the mean vehicle control value.

With `C[C@@H]1[C@H](O)[C@@H](C)/C=C/C=C/C=C/C=C/C=C/C=C/C=C/[C@H](O[C@@H]2O[C@H](C)[C@@H](O)[C@H](N)[C@@H]2O)C[C@@H]2O[C@](O)(C[C@@H](O)C[C@@H](O)[C@H](O)CC[C@@H](O)C[C@@H](O)CC(=O)O[C@H]1C)C[C@H](O)[C@H]2C(=O)O` [AMB, amphotericin B, reference compound], in the data set on C. albicans [1], the MIC (commonly the smallest concentration in the dilution series that meets the test's criterion for growth inhibition) was 0.125 to 0.25 µg/mL (≈ 0.135 to 0.271 µM). Further, in data set [2], the NLD acute mice stood at 1.5 mg/kg. In addition, in the data set on C. albicans [3], the ED50 (commonly the midpoint of the dose-response relation) is 0.3 mg/kg.
